Measured values reported in ChEMBL document CHEMBL1131795, “The spiroketals containing a benzyloxymethyl moiety at C8 position showed the most potent apoptosis-inducing activity” (1999).

Assays:
Assay type in all cases: functional
[1] = species: Homo sapiens; assay: Cell viability of serum-deprived Jurkat cells were determined, 24 hours after incubation with 20 uM concentration of the compound, by MTT-assay
[2] = species: Homo sapiens; assay: Cell viability of serum-deprived Jurkat cells were determined, 24 hours after incubation with 100 uM concentration of the compound, by MTT-assay
[3] = species: Homo sapiens; assay: Concentration required to cause death of human T cell leukemia Jurkat cell was determined; details: read-out: LC50 (the source's name)

For `C[C@@H]1CCCO[C@@]12CC[C@H](C)[C@@H](COCc1ccccc1)O2`, the Cell viability [1] was 1.7%, the Cell viability [2] was 0% and the CC50 [3] was 14 µM.

With `C[C@@H]1CCCO[C@@]12CC[C@H](C)[C@@H](CO)O2` the Cell viability [1] was 86% and the Cell viability [2] was 43.8%.

For `C[C@@H]1CCCO[C@]12O[C@H](CO)[C@@H](C)C[C@H]2S(=O)(=O)c1ccccc1`, the Cell viability [1] was 67.1% and the Cell viability [2] was 39%.

In the case of `C[C@@H]1CCCO[C@@]12CCCCO2`, the Cell viability [1] is reported as 98.6% and the Cell viability [2] is reported as 87.4%.

In the case of `C[C@@H]1CCCO[C@@]12CC[C@H](C)[C@@H](CO[Si](c1ccccc1)(c1ccccc1)C(C)(C)C)O2`, the Cell viability [1] is reported as 38.2% and the Cell viability [2] is reported as 43%.

Compound `CC1CC[C@]2(CCCCO2)OC1` (some centres not stated) has a Cell viability [1] of 97.7% and a Cell viability [2] of 84.6%.

`C[C@@H]1CCCO[C@@]12CC[C@H](C)[C@@H](COC1CCCCO1)O2` (some centres not stated) gave a Cell viability [1] of 84.1% and a Cell viability [2] of 60.1%.

Work on `C[C@@H]1CCCO[C@@]12CC[C@H](C)[C@@H](COCOCc1ccccc1)O2` yielded a Cell viability [1] of 77.9%, a Cell viability [2] of 0.3% and a CC50 [3] of 32 µM.

`COCOC[C@H]1O[C@@]2(CC[C@@H]1C)OCCC[C@H]2C` gave a Cell viability [1] of 89.1% and a Cell viability [2] of 81.5%.

Compound `C[C@@H]1CCCO[C@]12O[C@H](CO[Si](c1ccccc1)(c1ccccc1)C(C)(C)C)[C@@H](C)C[C@H]2S(=O)(=O)c1ccccc1` has a Cell viability [1] of 79.5% and a Cell viability [2] of 68.4%.
